Test: xn = mol fraction of the nth substance listed
Settings: 101 kPa, Liquid; for viscosity: Falling or rolling sphere viscometry; for mass density: Vibrating tube method

CCCCn1cc[n+](C)c1C.F[B-](F)(F)F [1-butyl-2,3-dimethylimidazolium tetrafluoroborate] + CC#N
Settings | mass density [kg/m3] | viscosity [mPa·s]
298.15 K, x1 = 0.1118 | 919.74 | 1.045
298.15 K, x1 = 0.1536 | 957.71 | –
298.15 K, x1 = 0.2247 | 1008.5 | 2.637
298.15 K, x1 = 0.3784 | 1079.62 | 8.933
298.15 K, x1 = 0.4601 | 1104.79 | –
298.15 K, x1 = 0.5515 | 1127.21 | 32.3
298.15 K, x1 = 0.666 | 1149.45 | 67.72
298.15 K, x1 = 0.7581 | 1163.71 | 143.9
298.15 K, x1 = 0.8423 | 1174.52 | 241.4
298.15 K, x1 = 1 | 1193.19 | 650
303.15 K, x1 = 0.1118 | 915.06 | 0.982
303.15 K, x1 = 0.1536 | 953.22 | –
303.15 K, x1 = 0.2247 | 1004.26 | 2.438
303.15 K, x1 = 0.3784 | 1075.69 | 7.746
303.15 K, x1 = 0.4601 | 1100.98 | –
303.15 K, x1 = 0.5515 | 1123.51 | 26.37
303.15 K, x1 = 0.666 | 1145.88 | 52.92
303.15 K, x1 = 0.7581 | 1160.23 | 108.2
303.15 K, x1 = 0.8423 | 1171.09 | 176.3
303.15 K, x1 = 1 | 1189.8 | 447
313.15 K, x1 = 0.1118 | 905.7 | 0.873
313.15 K, x1 = 0.1536 | 944.25 | –
313.15 K, x1 = 0.2247 | 995.79 | 2.071
313.15 K, x1 = 0.3784 | 1067.89 | 5.997
313.15 K, x1 = 0.4601 | 1093.41 | –
313.15 K, x1 = 0.5515 | 1116.15 | 18.33
313.15 K, x1 = 0.666 | 1138.75 | 34.34
313.15 K, x1 = 0.7581 | 1153.24 | 65.14
313.15 K, x1 = 0.8423 | 1164.22 | 102.2
313.15 K, x1 = 1 | 1183.02 | 232.9
323.15 K, x1 = 0.1118 | 896.31 | 0.783
323.15 K, x1 = 0.1536 | 935.27 | –
323.15 K, x1 = 0.2247 | 987.34 | 1.781
323.15 K, x1 = 0.3784 | 1060.12 | 4.784
323.15 K, x1 = 0.4601 | 1085.88 | –
323.15 K, x1 = 0.5515 | 1108.85 | 13.36
323.15 K, x1 = 0.666 | 1131.67 | 23.63
323.15 K, x1 = 0.7581 | 1146.32 | 42.26
323.15 K, x1 = 0.8423 | 1157.4 | 63.15
323.15 K, x1 = 1 | 1176.38 | 132.8
333.15 K, x1 = 0.1118 | 886.87 | 0.714
333.15 K, x1 = 0.1536 | 926.27 | –
333.15 K, x1 = 0.2247 | 978.89 | 1.551
333.15 K, x1 = 0.3784 | 1052.37 | 3.914
333.15 K, x1 = 0.4601 | 1078.37 | –
333.15 K, x1 = 0.5515 | 1101.56 | 10.11
333.15 K, x1 = 0.666 | 1124.62 | 17.06
333.15 K, x1 = 0.7581 | 1139.41 | 28.89
333.15 K, x1 = 0.8423 | 1150.59 | 41.76
333.15 K, x1 = 1 | 1169.82 | 81.53
343.15 K, x1 = 0.1118 | 877.39 | 0.572
343.15 K, x1 = 0.1536 | 917.25 | –
343.15 K, x1 = 0.2247 | 970.44 | 1.369
343.15 K, x1 = 0.3784 | 1044.64 | 3.264
343.15 K, x1 = 0.4601 | 1070.89 | –
343.15 K, x1 = 0.5515 | 1094.31 | 7.897
343.15 K, x1 = 0.666 | 1117.6 | 12.79
343.15 K, x1 = 0.7581 | 1132.51 | 20.7
343.15 K, x1 = 0.8423 | 1143.79 | 30
343.15 K, x1 = 1 | 1163.26 | 53.99

CCCCn1cc[n+](C)c1C.F[B-](F)(F)F [1-butyl-2,3-dimethylimidazolium tetrafluoroborate] + C[S+](C)[O-]
Settings | mass density [kg/m3] | viscosity [mPa·s]
298.15 K, x1 = 0.138 | 1128.27 | 5.197
298.15 K, x1 = 0.2292 | 1142.83 | 9.384
298.15 K, x1 = 0.3151 | 1153.4 | 16.2
298.15 K, x1 = 0.4079 | 1162.44 | 28.31
298.15 K, x1 = 0.5334 | 1172.17 | 60.17
298.15 K, x1 = 0.6374 | 1178.33 | 108.3
298.15 K, x1 = 0.7004 | 1181.74 | 160.1
298.15 K, x1 = 0.7952 | 1185.94 | –
298.15 K, x1 = 0.8785 | 1189.03 | 370.4
298.15 K, x1 = 1 | 1193.19 | 650
303.15 K, x1 = 0.138 | 1123.85 | 4.594
303.15 K, x1 = 0.2292 | 1138.65 | 8.077
303.15 K, x1 = 0.3151 | 1149.37 | 13.58
303.15 K, x1 = 0.4079 | 1158.58 | 23.32
303.15 K, x1 = 0.5334 | 1168.48 | 47.09
303.15 K, x1 = 0.6374 | 1174.75 | 82.19
303.15 K, x1 = 0.7004 | 1178.22 | 119.4
303.15 K, x1 = 0.7952 | 1182.45 | –
303.15 K, x1 = 0.8785 | 1185.53 | 263.2
303.15 K, x1 = 1 | 1189.8 | 447
313.15 K, x1 = 0.138 | 1115.07 | 3.654
313.15 K, x1 = 0.2292 | 1130.35 | 6.142
313.15 K, x1 = 0.3151 | 1141.4 | 9.873
313.15 K, x1 = 0.4079 | 1150.89 | 15.99
313.15 K, x1 = 0.5334 | 1161.12 | 30.51
313.15 K, x1 = 0.6374 | 1167.61 | 50.32
313.15 K, x1 = 0.7004 | 1171.2 | 70.58
313.15 K, x1 = 0.7952 | 1175.55 | –
313.15 K, x1 = 0.8785 | 1178.68 | 144.9
313.15 K, x1 = 1 | 1183.02 | 232.9
323.15 K, x1 = 0.138 | 1106.3 | 2.981
323.15 K, x1 = 0.2292 | 1122.07 | 4.831
323.15 K, x1 = 0.3151 | 1133.47 | 7.481
323.15 K, x1 = 0.4079 | 1143.24 | 11.64
323.15 K, x1 = 0.5334 | 1153.77 | 20.96
323.15 K, x1 = 0.6374 | 1160.48 | 33.05
323.15 K, x1 = 0.7004 | 1164.2 | 44.88
323.15 K, x1 = 0.7952 | 1168.71 | –
323.15 K, x1 = 0.8785 | 1171.96 | 86.55
323.15 K, x1 = 1 | 1176.38 | 132.8
333.15 K, x1 = 0.138 | 1097.56 | 2.49
333.15 K, x1 = 0.2292 | 1113.83 | 3.906
333.15 K, x1 = 0.3151 | 1125.56 | 5.851
333.15 K, x1 = 0.4079 | 1135.62 | 8.806
333.15 K, x1 = 0.5334 | 1146.46 | 15.18
333.15 K, x1 = 0.6374 | 1153.38 | 22.96
333.15 K, x1 = 0.7004 | 1157.22 | 30.3
333.15 K, x1 = 0.7952 | 1161.88 | –
333.15 K, x1 = 0.8785 | 1165.23 | 55.64
333.15 K, x1 = 1 | 1169.82 | 81.53
343.15 K, x1 = 0.138 | 1088.84 | 2.115
343.15 K, x1 = 0.2292 | 1105.61 | 3.23
343.15 K, x1 = 0.3151 | 1117.7 | 4.708
343.15 K, x1 = 0.4079 | 1128.03 | 6.868
343.15 K, x1 = 0.5334 | 1139.19 | 11.46
343.15 K, x1 = 0.6374 | 1146.31 | 16.7
343.15 K, x1 = 0.7004 | 1150.26 | 21.53
343.15 K, x1 = 0.7952 | 1155.06 | –
343.15 K, x1 = 0.8785 | 1158.52 | 37.74
343.15 K, x1 = 1 | 1163.26 | 53.99
353.15 K, x1 = 0.138 | 1080.12 | 1.826
353.15 K, x1 = 0.2292 | 1097.41 | 2.724
353.15 K, x1 = 0.3151 | 1109.86 | 3.873
353.15 K, x1 = 0.4079 | 1120.49 | 5.501
353.15 K, x1 = 0.5334 | 1131.96 | 8.897
353.15 K, x1 = 0.6374 | 1139.27 | 12.73
353.15 K, x1 = 0.7004 | 1143.34 | 16.03
353.15 K, x1 = 0.7952 | 1148.27 | –
353.15 K, x1 = 0.8785 | 1151.83 | 26.75
353.15 K, x1 = 1 | 1156.71 | 37.13

Source: the NIST ThermoML archive (doi:10.1021/je3007474)
